Assay results taken from publication PMC9934367, “Functional impact of subunit composition and compensation on Drosophila melanogaster nicotinic receptors–targets of neonicotinoids” (PLOS Genetics, 2023).
Where two headings read alike, the source gives them in different places.

How the values were obtained:
[1] = test system: Adult D. melanogaster flies; assay: Adult climbing assay; assay type: in vivo; conditions: RNAi of Dα2
Method: All flies were raised at 25°C under 12 h/12 h light/dark cycle. The animals were reared on standard fly food containing 5.5 g agar, 100 g glucose, 40 g dry yeast, 90 g cornflour, 3 mL propionic acid, and 3.5 mL 10% butyl p-hydroxybenzoate (Nacalai Tesque, Japan, #06327–15) in 70% ethanol per liter. The control strain was w^1118, and transgenic flies are as follows: UAS-nAChRα1 RNAi (#28688) was obtained from the Bloomington Drosophila Stock Center (BDSC); UAS-nAChRα2 RNAi (UAS-Dα2 RNAi, #10760), UAS-nAChRα3 RNAi (UAS-Dα3 RNAi, #101806); UAS-dicer2 (#60009) were obtained from the Vienna Drosophila Resource Center (VDRC); and UAS-mCD8::GFP (#108068) was obtained from Kyoto Stock Center. elav-Gal4 (3A3) was obtained from Michael B. O’Connor. nAChRα3-knock-in 2A-Gal4 (Dα3-knock-in T2A-Gal4) was generated by the CRISPR/Cas9 system as described in detail below.
Adult D. melanogaster flies were collected within a day following eclosion and placed in normal fly food (less than 30 flies/vial). Flies were transferred daily to new fly food. 2–5 days after eclosion, flies were briefly anesthetised with CO2, and the sexes were separated and sorted into fly vials containing 1.0% agar food for starvation (10 flies/vial). After 16 h starvation, flies were transferred to vials containing neonicotinoid-containing food without anesthesia and cultured for 6 h (10 flies/vial). Neonicotinoid-containing foods were prepared by mixing 10 μL of diluted neonicotinoids dissolved in DMSO with 990 μL of a solution containing 1% agar and 5% sucrose for each vial. After 6 h cultured in vials containing neonicotinoid-containing food, flies were gently tapped down to the surface of the food, and flies that climbed within 20 s after tapping were recorded by a video camera (GZ-F270-W, JVCKENWOOD, Japan). The maximum climbing heights of the flies within 20 s after tapping were measured using ImageJ1.53v (National Institute of Health, USA). Since the height from the surface of the food to the vial top is 8 cm, the maximum climbing height is 8 cm.

Dα3/Dβ1/Dβ2 nAChR = target: T1, Dα3/Dβ1/Dβ2 nAChR (Drosophila melanogaster, UniProt P04755+P25162+Q9W3G6); assay: Voltage-clamp electrophysiology, nAChR expressed in X. laevis oocytes; assay type: cell-based, D. melanogaster; conditions: Dα3/Dβ1/Dβ2 nAChR
T1 construct: Dβ1 (NP_523927); Dβ2 (NP_524483); expressed in transfected cells; host or cells: Xenopus laevis oocytes (cRNA injection)
Method: (§1) cDNAs of the nAChR subunits and co-factors were cloned into pcDNA3.1 (+) vector (Thermo Fisher Scientific). The accession numbers of the nAChR subunits and cofactors are as follows: Dα1 (NP_524481), Dα2 (NP_524482), Dα3 (NP_525079), Dα4 (CAB77445), Dβ1 (NP_523927), Dβ2 (NP_524483), Dβ3 (NP_525098), DmRIC-3 (CAP16647), DmUNC-50 (NP_649813), and DmTMX3 (NP_648847). cRNAs were prepared using the mMESSAGE mMACHINE T7 ULTRA Transcription Kit (Thermo Fisher Scientific, #AM1345) according to the manual with the cDNA template which was cut with appropriate restriction enzymes at the 3’ end of the cDNA.
(§2) We minimised the use of X. laevis according to the UK Animals (Scientific Procedures) Act, 1986. […] Oocytes were defolliculated after collagenase treatment in Ca^2+-free standard oocyte saline (Ca^2+-free SOS). cRNAs of the nAChR subunits and co-factors mixed at a concentration of 0.1 mg/mL was injected into oocytes at a volume of 50 nL. Then the oocytes were incubated in the incubation medium (SOS supplemented with sodium pyruvate (Nacalai Tesque, #13058–12), penicillin-streptomycin (MilliporeSigma, #P4333), gentamycin (Nacalai Tesque, #16672–04), and 4% horse serum (Thermo Fisher Scientific, #26050–070) for 3−4 days prior to electrophysiology.
(§3) Each defolliculated X. laevis oocyte was secured in a Perspex recording chamber and perfused with the standard oocyte saline (SOS) containing 0.5 μM atropine (SOSA) at a flow rate of 7−10 mL/min [48]. Two glass electrodes filled with 2 M KCl were impaled into each oocyte and the membrane potential was clamped at -100 mV. […] The peak amplitude of the response was measured and analysed by pCLAMP (Molecular Devices, USA).
(§4) Y=Imax/1+10^(logEC50‐X)nH
(§5) Where Y is the normalised response, X is log[ligand (M)], EC50 is the half maximal concentration (M), Imax is the maximum normalised response and nH is the Hill coefficient.

Dα1/Dα2/Dβ1/Dβ2 nAChR = target: T2, Dα1/Dα2/Dβ1/Dβ2 nAChR (Drosophila melanogaster, UniProt P04755+P09478+P17644+P25162); assay: as above; assay type: cell-based, D. melanogaster; conditions: mean ± standard error (n = 5)
T2 construct: Dα1 (NP_524481); Dα2 (NP_524482); Dβ1 (NP_523927); Dβ2 (NP_524483); expressed in transfected cells; host or cells: Xenopus laevis oocytes (cRNA injection)
Method: as §1, §2, §3, §4, §5

Dα1/Dβ1 nAChR = target: T3, Dα1/Dβ1 nAChR (Drosophila melanogaster, UniProt P04755+P09478); assay: as above; assay type: cell-based, D. melanogaster; conditions: mean ± standard error (n = 5)
T3 construct: Dα1 (NP_524481); Dβ1 (NP_523927); expressed in transfected cells; host or cells: Xenopus laevis oocytes (cRNA injection)
Method: as §1, §2, §3, §4, §5

Dα2/Dα3/Dβ1/Dβ2 nAChR = target: T4, Dα2/Dα3/Dβ1/Dβ2 nAChR (Drosophila melanogaster, UniProt P04755+P17644+P25162+Q9W3G6); assay: as above; assay type: cell-based, D. melanogaster; conditions: mean ± standard error (n = 5)
T4 construct: Dα2 (NP_524482); Dβ1 (NP_523927); Dβ2 (NP_524483); expressed in transfected cells; host or cells: Xenopus laevis oocytes (cRNA injection)
Method: as §1, §2, §3, §4, §5

Dα1/Dβ1/Dβ2 nAChR = target: T5, Dα1/Dβ1/Dβ2 nAChR (Drosophila melanogaster, UniProt P04755+P09478+P25162); assay: as above; assay type: cell-based, D. melanogaster
T5 construct: Dα1 (NP_524481); Dβ1 (NP_523927); Dβ2 (NP_524483); expressed in transfected cells; host or cells: Xenopus laevis oocytes (cRNA injection)
Method: as §1, §2, §3, §4, §5

[2] = target: T6, Dα1/Dα3/Dβ1/Dβ2/Dβ3 nAChR; assay: as above; assay type: cell-based, D. melanogaster; conditions: mean ± standard error (n = 5); for Imax: normalised to maximum ACh response
T6 construct: Dα1 (NP_524481); Dβ1 (NP_523927); Dβ2 (NP_524483); expressed in transfected cells; host or cells: Xenopus laevis oocytes (cRNA injection)
Method: as §1, §2, §3, §4, §5

[3] = normalised to maximum ACh response, mean ± standard error (n = 5)
[4] = efficacy, mean ± standard error (n = 5)
[5] = normalised to maximum ACh response
[6] = mean ± standard error (n = 5), read-out: pEC50 (converted)

SMILES | sensitivity in adults, effect of RNAi ([1]; adult males) | Imax (Dα3/Dβ1/Dβ2 nAChR; [3]) | EC50 (Dα3/Dβ1/Dβ2 nAChR; read-out: EC50) [nM] | Imax (Dα3/Dβ1/Dβ2 nAChR; [4]) | Imax (Dα1/Dα2/Dβ1/Dβ2 nAChR; efficacy) | EC50 (Dα1/Dα2/Dβ1/Dβ2 nAChR) [nM] | Imax (Dα1/Dα2/Dβ1/Dβ2 nAChR; [5]) | Imax (Dα1/Dβ1 nAChR; efficacy) | EC50 (Dα1/Dβ1 nAChR) [nM] | Imax (Dα1/Dβ1 nAChR; [5]) | Imax (Dα2/Dα3/Dβ1/Dβ2 nAChR; efficacy) | EC50 (Dα2/Dα3/Dβ1/Dβ2 nAChR) [nM] | Imax (Dα2/Dα3/Dβ1/Dβ2 nAChR; [5]) | Imax (Dα1/Dβ1/Dβ2 nAChR; [4]) | Imax (Dα1/Dβ1/Dβ2 nAChR; [3]) | EC50 (Dα1/Dβ1/Dβ2 nAChR; read-out: EC50) [nM] | pEC50 [2] | Imax [2] | sensitivity in adults, effect of RNAi ([1]; adult females) | further results
CN/C(=N\[N+](=O)[O-])NCc1cnc(Cl)s1 [Clothianidin, clothianidin] | hypersensitivity | 0.492 ± 0.016 | 34.7 | 0.492 | 0.800 | 490 | 0.800 ± 0.033 | 0.508 | 74.1 | 0.508 ± 0.015 | 0.634 | 51.3 | 0.634 ± 0.020 | 0.360 | 0.360 ± 0.016 | 229 | 7.60 ± 0.12 | 0.531 ± 0.026 | – | –
O=[N+]([O-])NC1=NCCN1Cc1ccc(Cl)nc1 [Imidacloprid, imidacloprid] | hypersensitivity | 0.039 ± 0.002 | 5.25 | 0.039 | 0.165 | 355 | 0.165 ± 0.016 | 0.122 | 69.2 | 0.122 ± 0.007 | 0.125 | 100 | 0.125 ± 0.018 | 0.076 | 0.076 ± 0.006 | 102 | 7.72 ± 0.11 | 0.140 ± 0.008 | hypersensitivity | –
N#C/N=C1\SCCN1Cc1ccc(Cl)nc1 [Thiacloprid, thiacloprid] | hypersensitivity | 0.022 ± 0.003 | – | 0.022 | 0.074 | 79.4 | 0.074 ± 0.014 | 0.091 | 16.2 | 0.091 ± 0.009 | 0.017 | 8.32 | 0.017 ± 0.002 | 0.043 | 0.043 ± 0.002 | – | 8.63 ± 0.23 | 0.089 ± 0.009 | hypersensitivity | EC50 (Dα3/Dβ1/Dβ2 nAChR; [6]): 4.79 nM; EC50 (Dα1/Dβ1/Dβ2 nAChR; [6]): 13.8 nM
CC(=O)OCC[N+](C)(C)C [ACh, acetylcholine] | – | – | – | 1 | 1 | – | – | 1 | – | – | 1 | – | – | 1 | – | – | – | – | – | –
